Source: the supplement of paper PMC3974653
Counter-ions that a name gives are not always drawn.

tested on: MTT (mouse pheochromocytoma); assay: IC50 of cell viability (ATP content); settings: (24 or 48 h)
Outline: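 MTT mouse pheochromocytoma cells were seeded into white 1536-well plates at 5 µl per well from a 200,000 cells/ml suspension in DMEM with 5% FBS and 1% horse serum, then cultured overnight at 37°C, 5% CO2. A pintool added 23 nl of library compound in DMSO at 8 concentrations (final 0.5 nM to 46 µM) for 24 or 48 hrs, and CellTiter-Glo ATP luminescence was read after 15 minutes. Signals were scaled so that positive-control wells equalled 100% and DMSO wells 0%. IC50 values were derived by fitting a four-parameter logistic curve.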

IC50 of cell viability [µM] | SMILES
> 46 | CN(CC1=CC2=C(N\C(=N/C2=O)C)C=C1)C3=CC=C(S3)C(=O)N[C@@H](CCC(O)=O)C(O)=O [Raltitrexed]
> 46 | CC(=O)[O-].C[N+](C)(C)CCO [Cholin acetate]
> 46 | COc1c(O)cc2c(c1O)[C@H]1O[C@@H](CO)[C@@H](O)[C@@H](O)[C@@H]1OC2=O.O [Bergenin monohydrate]
> 46 | CN1CCN(CC1)\C2=N\C3=C(OC4=C2C=C(Cl)C=C4)C=CC=C3.OC(=O)CCC(O)=O [Loxapine succinate]
> 46 | CC(C)C1NC(=O)[C@@H](NC(=O)C2=C3\N=C\4/C(=C(/C)C(=O)\C(=C4C(=O)N[C@H]5[C@@H](C)OC(=O)C(C(C)C)N(C)C(=O)CN(C)C(=O)[C@@H]6CCCN6C(=O)C(NC5=O)C(C)C)N)OC3=C(C)C=C2)[C@@H](C)OC(=O)C(C(C)C)N(C)C(=O)CN(C)C(=O)[C@@H]7CCCN7C1=O (stereo not given in full)
> 46 | O=C1[O][Bi]([OH])[O]c2ccccc21 [Bismuth subsalicylate]
> 46 | [NH2][Pt]1([NH2])[O]CC(=O)[O]1 [NEDAPLATIN]
> 46 | O=C(O)Cc1sc(-c2ccccc2)nc1-c1ccc(Cl)cc1 [Fentiazac]
> 46 | CCN1CCCC1CNC(=O)c1cc([S+](=O)([O-])CC)c(N)cc1OC (stereo not given) [Amisulpride]
> 46 | CCC1OC(=O)CC(O)C(C)[C@@H](O[C@@H]2OC(C)[C@H](O[C@@H]3C[C@@](C)(O)C(O)C(C)O3)C(N(C)C)C2O)[C@H](CC=O)CC(C)C(=O)/C=C/C(C)=C/[C@@H]1COC1OC(C)C(O)C(OC)[C@@H]1OC (stereo not given in full) [TYLOSIN TARTRATE]
> 46 | O=C(O)CC1=S=C(c2ccccc2)N=C1c1ccc(Cl)cc1 [Fentiazac]
> 46 | CC(C)Nc1cccnc1N1CCN(C(=O)c2cc3cc(N[S+](C)(=O)[O-])ccc3[nH]2)CC1 [DELAVIRDINE MESYLATE]
> 46 | CCN[C@@H]1C[C@H](N)[C@H](O[C@@H]2O\C(=C/C[C@H]2N)CN)[C@@H](O)[C@@H]1O[C@@H]3OC[C@@](C)(O)[C@@H](NC)[C@H]3O [Netilmicin sulfate]
> 46 | CN1CCC(=C2c3ccccc3CC(=O)c3sccc32)CC1 [KETOTIFEN]
> 46 | N=C(N)NC(=N)NCCc1ccccc1.[Cl-].[H+] [Phenformin HCl]
> 46 | C[C@](N)(Cc1ccc(O)cc1)C(=O)O [Metyrosine]
> 46 | O=C(NCCO[N+](=O)[O-])c1cccnc1 [Nicorandil]
> 46 | CC(CN1c2ccccc2Sc2ccccc21)N(C)C (stereo not given) [PROMETHAZINE]
> 46 | O=C(CO)C(O)C(O)C(O)CO [D-LEVULOSE]
> 46 | O=C(O)[C@@H]1CCCN1 (racemic) [DL-Proline]
> 46 | C1C\N=C(\CC2=CC=CC=C2)N1 [Tolazoline hydrochloride]
> 46 | O=C(O)C(O)C(O)C(O)C(O)C(=O)O (stereo not given) [MUCIC ACID]
> 46 | O=S(=O)([O-])OCC1OC(OC2(COS(=O)(=O)[O-])OC(COS(=O)(=O)[O-])C(OS(=O)(=O)[O-])C2OS(=O)(=O)[O-])C(OS(=O)(=O)[O-])C(OS(=O)(=O)[O-])C1OS(=O)(=O)[O-] (stereo not given) [Sucrose Octasulfate, Sodium Salt]
> 46 | COC(=O)C1=C(C)NC(C)=C(C(=O)OC(C)(C)CN(C)CCC(c2ccccc2)c2ccccc2)C1c1cccc([N+](=O)[O-])c1 (stereo not given) [LERCANIDIPINE HYDROCHLORIDE]
> 46 | CSCCC(NC(=O)[C@H](Cc1c[nH]c2ccccc12)NC(=O)CNC(=O)[C@H](CCSC)NC(=O)[C@H](Cc1ccc(O[S+](=O)([O-])O)cc1)NC(=O)[C@@H](N)CC(=O)O)C(=O)N[C@@H](CC(=O)O)C(=O)N[C@@H](Cc1ccccc1)C(N)=O (stereo not given in full) [(Tyr[SO3H]27)Cholecystokinin fragment 26-33 Amide]
> 46 | CCCCC/C=C/C/C=C/CCCCCCCC(=O)OCC [ETHYL LINOLEATE]
> 46 | O=C1c2cccc3c2[C@@H](CCC3)CN1[C@@H]1CN2CCC1CC2 [PALONOSETRON HYDROCHLORIDE]

IC50 of cell viability [µM] | SMILES
> 46 | N[S+]([O-])(=O)C1=C(Cl)C=C2\N=C(\CSCC3=CC=CC=C3)N[S+]([O-])(=O)C2=C1 [Benzthiazide]
> 46 | O=C1c2ccccc2C(=O)C1c1ccc(F)cc1 [Fluindiona]
> 46 | CC1=C(/C=C/C(C)=C/C=C/C(C)=C/C=C/C=C(C)/C=C/C=C(C)/C=C/C2=C(C)CCCC2(C)C)C(C)(C)CCC1 [beta-CAROTENE]
> 46 | CN(C)CCCOc1nn(Cc2ccccc2)c2ccccc12 [Benzydamine hydrochloride]
> 46 | Cc1c(I)c(=O)n(-c2ccccc2)n1C [IODOANTIPYRINE]
> 46 | Cl.COC1=C(C=CC=C1)N2CCN(CCCNC/3=C/C(=O)N(C)C(=O)N3C)CC2 [Urapidil hydrochloride]
> 46 | Cc1cc(NS(=O)(=O)c2ccc(N)cc2)nc(C)n1 [Sulfisomidine]
> 46 | CC(=O)Oc1cc(C(C)C)c(OCCN(C)C)cc1C [Moxisylyte hydrochoride]
> 46 | CCCOC(=O)c1ccccc1O [PROPYL SALICYLATE]
> 46 | CNCCCN1c2ccccc2CCc2ccccc21 [Desipramine hydrochloride]
> 46 | CCC(C)(Oc1ccc(C2(c3ccc(OC(C)(CC)C(=O)O)cc3)CCCCC2)cc1)C(=O)O (stereo not given) [CLINOFIBRATE]
> 46 | CC1(C(=O)O)CCC2(C)CCC3(C)C(=CC(=O)[C@@H]4C5(C)CC[C@H](O[C@H]6O[C@H](C(=O)O)C(O)C(O)[C@H]6O[C@@H]6O[C@H](C(=O)O)C(O)C(O)C6O)C(C)(C)[C@@H]5CCC43C)[C@@H]2C1 (stereo not given in full) [GLYCYRRHIZIC ACID, MONOSODIUM SALT]
> 46 | CCN(CC)C(=O)[C@@]1(c2ccccc2)C[C@@H]1CN [MILNACIPRAN]
> 46 | CO[C@H]1[C@@H](O)[C@H](N)[C@@H](O[C@H]2O[C@@H]([C@H](C)N)CC[C@H]2N)[C@H](O)[C@@H]1N(C)C(=O)CN [ASTROMICIN SULPHATE]
> 46 | CCN1CCC[C@H]1CNC(=O)c1cc([S+](N)(=O)[O-])ccc1OC [Levosulpiride]
> 46 | [Na+].CC(=O)OC\C1=C(\[N@]2[C@@H](SC1)[C@H](NC(=O)CSC3=CC=NC=C3)C2=O)C([O-])=O [Cephapirin sodium salt]
> 46 | CC1=C(/C=C/C(C)=C/C=C/C(C)=C/C=C/C=C(C)/C=C/C=C(C)/C=C/C2=C(C)C(=O)CCC2(C)C)C(C)(C)CCC1=O [CANTHAXANTHIN (euglenanone)]
> 46 | CC(=O)OC[C@H]1O[C@H]([C@H](OC(C)=O)[C@@H]1OC(C)=O)N2\N=C/C(=O)NC2=O [Azaribine]
> 46 | IC(I)I [Iodoform]
> 46 | CC1CC(=O)N/N=C1/C2=CC=C(NCC(C)(C)NCC(O)COC3=C(C=CC(=C3)Cl)C#N)C=C2 (stereo not given) [Oberadilol]
> 46 | CCOc1cc(CC(=O)N[C@@H](CC(C)C)c2ccccc2N2CCCCC2)ccc1C(=O)O [Repaglinide]
> 46 | CCN(CC)CCCC(C)Nc1cc(/C=C/c2ccccc2Cl)nc2cc(Cl)ccc12 (stereo not given) [AMINOQUINOLUM]
> 46 | CN1c2c(O)nc(N)nc2NCC1CNc1ccc(C(=O)NC(CCC(=O)[O-])C(=O)[O-])cc1 (stereo not given) [5-METHYLTETRAHYDROFOLATE SODIUM SALT]
> 46 | CCOC(=O)C(CCc1ccccc1)NC(C)C(=O)N1Cc2ccccc2CC1C(=O)O.Cl (stereo not given) [QUINAPRIL HYDROCHLORIDE]
> 46 | COP(=O)(OC)OC(c1ccc(Cl)cc1)P(=O)(OC)OC (stereo not given) [MIFOBATUM]
> 46 | N[S+](=O)([O-])Cc1noc2ccccc12 [Zonisamide]
> 46 | Nc1ccc(N)c([N+](=O)[O-])c1 [2-Nitro-1,4-phenylenediamine]

SMILES | IC50 of cell viability [µM]
COC1=CC=C2[C@H]3Cc4ccc(OC)c5c4[C@@]2(CCN3C)[C@H]1O5 [THEBAINE] | > 46
CCN(CC)Cc1nccn1-c1ccc([N+](=O)[O-])cc1C(=O)c1ccccc1Cl [Nizofenone] | > 46
N#CC1(N2CCCCC2)CCCCC1 [1-PIPERIDINOCYCLOHEXANECARBONITRILE] | > 46
Oc1ccc(Cl)cc1Cc1ccccc1 [Clorophene] | > 46
C=C[C@@H]1CN2CC[C@H]1C[C@H]2[C@H](O)c1ccnc2ccccc12 [cinchonine] | > 46
CC1OC(O[C@H]2C[C@@H](O)[C@]3(CO)[C@H]4[C@H](O)C[C@]5(C)[C@@H](C6=CC(=O)OC6)CC[C@]5(O)[C@@H]4CC[C@]3(O)C2)C(O)C(O)C1O (stereo not given in full) [OUABAIN] | > 46
CN1C(=O)C(O)N=C(c2ccccc2)c2cc(Cl)ccc21 (stereo not given) [Temazepam] | > 46
O[C@H]1\C=C/C2[C@H]3CC4=CC=C(O)C5=C4[C@@]2(CCN3)[C@H]1O5 (stereo not given in full) [Normorphine] | > 46
CN1CC[C@@]23C4OC5=C(OC(C)=O)C=CC(=C25)C[C@@H]1C3\C=C/C4OC(C)=O (stereo not given in full) [3,6-Diacetylmorphine] | > 46
[Na+].CCCC(C)C1(CC=C)C(=O)N\C(=N/C1=O)[S-] (stereo not given) [THIAMYLAL SODIUM] | > 46
CN(C)CCN(Cc1ccccc1)c1ccccn1.O=C(O)CC(O)(CC(=O)O)C(=O)O [TRIPELENNAMINE CITRATE] | > 46
